# From article PMC12717099, “Peptidoglycan recruitment by a penicillin binding protein” (Nature Communications, 2025)
# Read-outs that look alike come from different tables or passages of the source.
# Assays:
# [1] = system: E. faecium D344SRF pCWR624Δpbp5_pbp5_V4; assay: MIC by broth microdilution, pbp5_V4; assay type: cell-based, Enterococcus faecium; settings: strain pbp5_V4 (D530A_L533A_W457A); 37 °C, 20 h; n=3
# Method: The synthetic genes were purchased from GeneWiz (South Plainfield, NJ). The ribosome binding site sequence AGGAGG (Shine-Dalgarno), and a string of five A’s followed by the sequence […], that corresponds to the first 15 bp found in pbp5 from E. faecium C68 were added upstream of the START codon. The terminator sequence […] was added downstream of the STOP codon. BamHI restriction sites were added to the flanking 5′ and 3′ ends. The synthetic genes were inserted into the vector pCWR624Δpbp5. This vector was derived from pCWR624[10], in which the pbp5 gene from D366 was excised by digestion with BamHI followed by re-ligation of the vector, allowing subsequent insertion of modified synthetic pbp5s into the BamHI site downstream of ftsWEfm and psr from E. faecium C68[10]. The synthetic genes were inserted in a BamHI site located downstream of psr. The proper orientation was confirmed by PCR amplification using the forward primer OR_pbp5_FOR_1 (5′-[…]-3′) and the reverse primer OR_pbp5_REV_1 (5′-[…]-3′). Plasmids were sequence verified for the specific binding site mutations. […]
# MIC determination was performed using a standard broth microdilution technique in duplicate from independent cultures. […] Plates were incubated at 37 °C for 20 h and read by eye. […]
# [2] = system: PBP4; settings: for STD amplification factor, 2000: protein:peptide 1:100, 2 s saturation
# Method: STD NMR experiments were carried out on 0.02 mM unlabeled PBP5T485, PBP4, and PBP2B in NMR buffer (10 mM MES pH 5.8, 25 mM NaCl) at 308 K with the peptides (SP1, SP2, SP4, SP5 and SP6 with PBP5, SP2 also with PBP4 and PBP2B) at 1:100 PBP5:peptide molar ratios using a pseudo 2D pulse sequence that leverages a shaped pulse train for saturation and selected water suppression by excitation sculpting with gradients. All STD experiments were performed at 800 MHz for best resolution and least signal overlap. Total saturation time for STD measurements was 2 s. A 2 s recycling delay, and 64 scans were used for all STD experiments. Selective protein saturation was achieved by setting the on-resonance frequency on PBP5 methyl peaks at 0.73 ppm. For the off-resonance (reference) spectrum, the irradiation frequency was shifted to −40 ppm. […] LTotal/PTotal is the ligand excess relative to a constant protein concentration.
# For a uniform analysis, we normalized the STD amplification factor by using the highest STD amplification factor in the SP1:PBP5 analysis and using the same STD amplification factor to normalize other SPs (SP2-6) to allow for a rigorous comparison. For the analysis of the STD NMR data only data from non-exchangeable protons (CH groups) were utilized. Overlapped peaks were completely excluded from the analysis.
compound,measurement,setting,value
"CO/N=C(\C(=O)N[C@@H]1C(=O)N2C(C(=O)O)=C(CSc3nc(=O)c(=O)[nH]n3C)CS[C@H]12)c1csc(N)n1 [Ceftriaxone, ceftriaxone]",MIC (µg/ml) [Range],[1],25 [25-50] µg/ml
D-Lac-L-Ala-D-iGln-L-Lys(D-iAsn) [SP2],STD % to SP1,[2]; 1H DLacβ,28.7108%
same,STD amplification factor as fraction of highest SP1:PBP5 value,[2]; 1H DLacβ,0.2871
same,"STD amplification factor, 2000",[2]; 1H DLacβ,7.726
same,STD % to SP1,[2]; 1H DQ2β (first listed),57.5161%
same,STD amplification factor as fraction of highest SP1:PBP5 value,[2]; 1H DQ2β (first listed),0.5752
same,"STD amplification factor, 2000",[2]; 1H DQ2β (first listed),15.4766
same,STD % to SP1,[2]; 1H DQ2β (second listed),62.3639%
same,STD amplification factor as fraction of highest SP1:PBP5 value,[2]; 1H DQ2β (second listed),0.6236
same,"STD amplification factor, 2000",[2]; 1H DQ2β (second listed),16.7811
same,STD % to SP1,[2]; 1H DQ2γ,18.9556%
same,STD amplification factor as fraction of highest SP1:PBP5 value,[2]; 1H DQ2γ,0.1896
same,"STD amplification factor, 2000",[2]; 1H DQ2γ,5.101
same,STD % to SP1,[2]; 1H K3α,41.8044%
same,STD amplification factor as fraction of highest SP1:PBP5 value,[2]; 1H K3α,0.418
same,"STD amplification factor, 2000",[2]; 1H K3α,11.2489
same,STD % to SP1,[2]; 1H K3β,89.5852%
same,STD amplification factor as fraction of highest SP1:PBP5 value,[2]; 1H K3β,0.8959
same,"STD amplification factor, 2000",[2]; 1H K3β,24.1059
same,STD % to SP1,[2]; 1H K3γ,46.145%
same,STD amplification factor as fraction of highest SP1:PBP5 value,[2]; 1H K3γ,0.4615
same,"STD amplification factor, 2000",[2]; 1H K3γ,12.4169
same,STD % to SP1,[2]; 1H K3δ,58.6188%
same,STD amplification factor as fraction of highest SP1:PBP5 value,[2]; 1H K3δ,0.5862
same,"STD amplification factor, 2000",[2]; 1H K3δ,15.7734
same,STD % to SP1,[2]; 1H K3ε,16.4854%
same,STD amplification factor as fraction of highest SP1:PBP5 value,[2]; 1H K3ε,0.1649
same,"STD amplification factor, 2000",[2]; 1H K3ε,4.436
same,STD % to SP1,[2]; 1H LA1α,41.4108%
same,STD amplification factor as fraction of highest SP1:PBP5 value,[2]; 1H LA1α,0.4141
same,"STD amplification factor, 2000",[2]; 1H LA1α,11.143
same,STD % to SP1,[2]; 1H LA1β,30.5144%
same,STD amplification factor as fraction of highest SP1:PBP5 value,[2]; 1H LA1β,0.3051
same,"STD amplification factor, 2000",[2]; 1H LA1β,8.211
same,STD % to SP1,"[2]; 1H iNα,DQ2α",21.1266%
same,STD amplification factor as fraction of highest SP1:PBP5 value,"[2]; 1H iNα,DQ2α",0.2113
same,"STD amplification factor, 2000","[2]; 1H iNα,DQ2α",5.685
same,STD % to SP1,[2]; 1H iNβ,26.2423%
same,STD amplification factor as fraction of highest SP1:PBP5 value,[2]; 1H iNβ,0.2624
same,"STD amplification factor, 2000",[2]; 1H iNβ,7.061
